Reference: paper PMC10459552, “Cardiomyocyte-Targeting Peptide to Deliver Amiodarone” (Pharmaceutics, 2023)
Where a name gives a salt, the structure may show the parent alone.

Columns and labels:
guinea pig hearts = experiment: Optical mapping of voltage and Ca2+ in Langendorff-perfused hearts after daily intraperitoneal injection; details: same dosing; for AP and CaT durations compared to control hearts: recovery to 90% of baseline, Figure 4c, e
Description: At the end of the study, the GPs were euthanized, the hearts excised and perfused on a Langendorff apparatus with Tyrode’s solution containing (in mM): NaCl (130), KCl (4), MgSO4 (1.2), NaHCO3 (25), Glucose (5), CaCl2 (1.25), and Mannitol (45), and gassed with 95% O2 and 5% CO2, with a pH of 7.0, at 37 °C. The hearts were placed in a custom-designed chamber to subdue the motion artifacts, along with a 15 min blebbistatin (5 µM) in perfusate to minimize the contractions. Bolus injections of voltage (RH237, 25 µL of 2 mg/mL dimethyl sulfoxide (DMSO)) and Ca^2+-indicator dye (Rhod-2/AM, 200 µL of 2 mg/mL DMSO) were injected in the air trap above the aortic cannula. Fluorescence from the epicardium was collected with a camera lens, split with a 570 nm dichroic mirror and focused on two CMOS cameras (Sci-Media UltimaOne, Costa Mesa, CA, USA) capturing the fluorescence emission at 570–595 nm for the cytosolic Ca^2+ and 610–750 nm wavelengths for the voltage, as described in detail previously [33]. After resting sinus rhythm image acquisition, the hearts were paced at 250 ms with programmed stimulation to measure and compare the conduction velocity and transient duration (90%) of various treatment groups.
Adult male GPs (250–350 g) were injected intraperitoneally with amiodarone (80 mg/kg; n = 4) daily for 7 days, CTP–amio (26.3 mg/kg; n = 4) for 5 days, or CTP alone (17.8 mg/kg; n = 4) for 5 days and compared to vehicle-only injected GPs (n = 10). At the end of the injection period, the GPs were euthanized, and their hearts were excised and perfused in a Langendorf apparatus. The hearts were labeled with a voltage-sensitive dye (RH 237) and a Ca^2+ indicator (Rhod-2/AM) with a bolus injection in the perfusate in the air trap above the aortic cannula. Fluorescence images of the heart were focused on 2 CMOS cameras, one to detect voltage and the other intracellular free Ca^2+. The heart rate, action potentials (APs), and intracellular free-Ca^2+ transients (CaT) were measured from 10,000 pixels of the voltage and Ca^2+ CMOS cameras (Supplemental Figure S1). Durations of the APs and CaTs were calculated from the first derivative of the rise of the signals to their recovery to 90% of the baseline.

[1] = system: guinea pig hearts (gene expression); experiment: RNA sequencing of treated hearts versus control hearts; type: in vivo; details: CTP-treated hearts versus controls
Description: Libraries were generated with the Illumina Stranded mRNA Library Prep kit (Illumina: 20040534, San Diego, CA, USA), according to the manufacturer’s instructions. RNA was assessed for quality using a Total RNA 15 nt kit (Agilent: DNF-471-33) on an Advanced Analytical 5300 Fragment Analyzer. The RNA concentration was quantified with a Qubit BR RNA assay kit (Invitrogen: Q10211) on a Qubit 4 (Invitrogen: Q33238). Briefly, 50 ng of input RNA was used for each sample. Following adapter ligation, 15 cycles of indexing PCR were completed, using IDT for Illumina RNA UD Indexes (Illumina: 20040553). Library assessment and quantification were performed using Qubit 1x HS DNA (Invitrogen: Q33231) on a Qubit 4 fluorometer and a HS NGS Fragment kit (Agilent: DNF-474-1000). […] The pooled library was loaded at 750 pM, and sequencing was carried out with read lengths of 2 × 101 bp, with an average of ~40 million reads per sample. […]
The raw RNA sequencing (RNA-Seq) paired-end reads for the guinea pig (GP) samples were processed through the Mayo RNA-Seq bioinformatics pipeline, RapMap version 1.0.0. Briefly, the raw reads were trimmed with a base quality cutoff of Phred score Q30 using Trimmomatic. […]
Using the gene-level counts from RapMap, genes differentially expressed between the control and treated groups were assessed using the bioinformatics package edgeR 2.6.2 [37]. […]

mice = details: biodistribution studies; cited from earlier work
From the text: The ability of cationic or hydrophobic cell-penetrating peptides to transduce a wide variety of tissue types in vivo limits their clinical utility because of their lack of cell specificity, leading to a higher chance of off-target adverse side effects. Phage display using libraries of various lengths and various bacteriophage strains have been successfully utilized to identify tissue-specific penetrating peptides. In our prior work, we employed a combinatorial in vitro and in vivo M13 phage display methodology to identify a 12-amino-acid, synthetic, mildly bas ...

Row | Compound | heart rate during sinus rhythm compared to control hearts (guinea pig hearts; Figure 4a) | conduction velocity (CV) of the APs and CaT compared to control hearts (guinea pig hearts; Figure 4b, d) | calcium transients compared to the controls (guinea pig hearts; Rhod-2/AM fluorescence) | AP and CaT durations compared to control hearts (guinea pig hearts) | expression of α-adrenergic receptors [1] | expression of β-adrenergic receptors [1] | crossing of the blood–brain barrier (mice) | route of excretion (mice)
1 | CCCCc1oc2ccccc2c1C(=O)c1cc(I)c(OCCN(CC)CC)c(I)c1 [amiodarone, Amiodarone hydrochloride] | significantly decreased | decreased | significantly decreased | increased |  |  |  | 
2 | NH2-APWHLSSQYSRT-COOH (H-APWHLSSQYSRT-OH) [CTP, 12-amino-acid, synthetic, mildly basic, non-naturally occurring cell-penetrating peptide identified by phage display] |  |  |  | decreased | upregulation | downregulation | does not cross | predominantly by a renal followed by a hepatobiliary mechanism
